# Data reported in patent US20260130933A1, “PHARMACEUTICAL COMPOSITION FOR PREVENTION OR TREATMENT OF NEPHROPATHY AND/OR DIABETES MELLITUS, COMPRISING ENAVOGLIFLOZIN” (DAEWOONG PHARMACEUTICAL CO., LTD., priority 2022, published 2026).
# Experiment: Example 2: phase 3 trial, enavogliflozin 0.3 mg vs dapagliflozin 10 mg once a day for 24 weeks added to metformin in patients with type 2 diabetes (same efficacy, exploratory and safety endpoints)
# Type: in vivo, human
# Method: Subjects who met the inclusion/exclusion criteria were administered a placebo of the clinical trial drug under single-blind (subject blinding) conditions during a 2-week run-in period while continuing to receive metformin. […] The randomized subjects were administered two tablets of the clinical trial drug for each administration group once a day, and then visited the institution at weeks 6, 12, 18, and 24 during the 24-week administration period to conduct efficacy and safety evaluations.
# • 1. Change in HbA1c at week 24 after administration of clinical trial drug compared to Visit 2 (randomization)
# • 1. Change in HbA1c at each time point of weeks 6, 12, and 18 after administration of clinical trial drug compared to Visit 2 (randomization) • 2. Change in FPG at each time point of weeks 6, 12, 18, and 24 after administration of clinical trial drug compared to Visit 2 (randomization) • 3. Proportion of subjects achieving HbA1c<7% at each time point of weeks 6, 12, 18, and 24 after administration of clinical trial drug • 4. Proportion of subjects achieving HbA1c<6.5% at each time point of weeks 6, 12, 18, and 24 after administration of clinical trial drug • 5. Proportion of subjects achieving therapeutic response (HbA1c change (HbA1c at Visit 2-HbA1c at each evaluation time point)>0.5% or HbA1c<7% at each evaluation time point compared to Visit 2 (randomization)) at each time point of weeks 6, 12, 18 and 24 after administration of clinical trial drug
# • 1. Change in fasting c-peptide at each time point of weeks 6, 12, 18, and 24 after administration of clinical trial drug compared to Visit 2 (randomization) • 2. Change in body weight at each time point of weeks 6, 12, 18, and 24 after administration of clinical trial drug compared to Visit 2 (randomization) • 3. Change in fasting lipid concentration (total cholesterol, LDL-C, HDL-C, and triglycerides) at each time point of weeks 6, 12, 18, and 24 after administration of clinical trial drug compared to Visit 2 (randomization) • 4. Changes in systolic or diastolic blood pressure at each time point of weeks 6, 12, 18, and 24 after administration of clinical trial drug compared to Visit 2 (randomization) • 5. Changes in β-cell function and insulin resistance measured by HOMA-β and HOMA-IR at each time point of weeks 6, 12, 18, and 24 after administration of clinical trial drug compared to Visit 2 (randomization) • 6. Changes in renal function-related indicators (UACR, UGCR) measured by UACR at each time point of weeks 6, 12, 18, and 24 after administration of clinical trial drug compared to Visit 2 (randomization) • 7. Changes in obesity-related indicators (adiponectin, leptin) at each time point of weeks 6, 12, 18, and 24 after administration of clinical trial drug compared to Visit 2 (randomization)
# [1] = week 18, per-protocol set, enavogliflozin 0.3 mg, dapagliflozin 10 mg
# [2] = week 24, listed as enavogliflozin
# [3] = week 24, modified per-protocol set 1, enavogliflozin 0.3 mg, dapagliflozin 10 mg
# [4] = week 24, per-protocol set, enavogliflozin 0.3 mg vs dapagliflozin 10 mg
# [5] = week 24, per-protocol set, enavogliflozin 0.3 mg, dapagliflozin 10 mg
smiles,measurement,setting,value
"OC[C@H]1O[C@@H](c2cc(Cc3ccc(C4CC4)cc3)c(Cl)c3c2CCO3)[C@H](O)[C@@H](O)[C@@H]1O [Enavogliflozin, (2S,3R,4R,5S,6R)-2-(7-chloro-6 (4-cyclopropylbenzyl)-2,3-dihydrobenzofuran-4-yl)-6-(hydroxymethyl)tetrahydro-2H-pyran-3,4,5-triol]","Subjects achieving HbA1c target of <6.5%, (%)",[1],(9.89) %
same,"Subjects achieving therapeutic glycemic response, (%)",[1],(80.22) %
same,"body weight, Mean (SD)",[1],66.72(11.26) kg
same,"body weight, Median",[1],64.30 kg
same,"fasting c-peptide, Mean (SD)",[1],0.65(0.24) ng/mL
same,"fasting c-peptide, Median",[1],0.61 ng/mL
same,"FPG change from baseline, LS mean (SE)",week 24,−32.53(1.76) mg/dL
same,"HOMA-IR change from baseline, LS mean (SE)",week 24,−1.85(0.13)
same,"HOMA-β change from baseline, LS mean (SE)",week 24,6.94(3.17)
same,"HbA1c change from baseline, LS mean (SE)",week 24,−0.80 % p
same,"HbA1c change from baseline, Mean (SD)",week 24,−0.78 % p
same,"HbA1c, Mean",week 24,6.98%
same,"LDL-C change from baseline, LS mean (SE)",week 24,1.64(1.92) mg/dL
same,Subjects achieving HbA1c target of <7%,week 24,(61.05) %
same,Subjects achieving HbA1c<6.5%,week 24,13.68%
same,Subjects achieving therapeutic response (HbA1c change >0.5% or HbA1c<7%),week 24,78.95%
same,"UACR change from baseline, LS mean (SE)",week 24,−24.29(3.38) g/kg
same,"UGCR change from baseline, LS mean (SE)",week 24,60.48(2.12) mg/mg
same,"diastolic blood pressure change from baseline, LS mean (SE)",week 24,−5.41(0.65) mmHg
same,"fasting c-peptide change from baseline, LS mean (SE)",week 24,−0.10(0.16) ng/ml
same,"leptin change from baseline, LS mean (SE)",week 24,−2.40(0.51) ng/mL
same,"FPG change from baseline, LS mean difference","week 24, vs dapagliflozin",-3.38 mg/dL
same,"HDL-C change from baseline, LS mean difference","week 24, vs dapagliflozin",-0.14 mg/dL
same,"HOMA-IR change from baseline, LS mean difference","week 24, vs dapagliflozin",−0.53
same,"HOMA-β change from baseline, LS mean difference","week 24, vs dapagliflozin",−4.99
same,"HbA1c change from baseline, LS mean difference","week 24, vs dapagliflozin",−0.04 % p
same,"LDL-C change from baseline, LS mean difference","week 24, vs dapagliflozin",0.71 mg/dL
same,Odds ratio for achieving HbA1c<6.5%,"week 24, vs dapagliflozin",0.40
same,Odds ratio for achieving HbA1c<7%,"week 24, vs dapagliflozin",0.97
same,Odds ratio for achieving therapeutic response,"week 24, vs dapagliflozin",1.30
same,"UACR change from baseline, LS mean difference","week 24, vs dapagliflozin",−6.93
same,"UGCR change from baseline, LS mean difference","week 24, vs dapagliflozin",15.54 mg/mg
same,"body weight change from baseline, LS mean difference","week 24, vs dapagliflozin",-0.18 kg
same,"diastolic blood pressure change from baseline, LS mean difference","week 24, vs dapagliflozin",−1.15 mmHg
same,"fasting c-peptide change from baseline, LS mean difference","week 24, vs dapagliflozin",-0.06 ng/mL
same,"leptin change from baseline, LS mean difference","week 24, vs dapagliflozin",-1.12 ng/mL
same,"systolic blood pressure change from baseline, LS mean difference","week 24, vs dapagliflozin",0.63 mmHg
same,"total cholesterol change from baseline, LS mean difference","week 24, vs dapagliflozin",2.40 mg/dL
same,"triglyceride change from baseline, LS mean difference","week 24, vs dapagliflozin",1.63 mg/dL
same,"HbA1c change from baseline, LS mean (SE)",[2],−0.80(0.06) % p
same,"HbA1c change from baseline, Mean (SD)",[2],−0.78(0.73) % p
same,Subjects achieving HbA1c target of <7%,[2],61.05%
same,"Change from baseline in total cholesterol, ANCOVA LS mean difference","week 24, modified per-protocol set 1, enavogliflozin 0.3 mg vs dapagliflozin 10 mg",2.40 mg/dL
same,"Change from baseline in Total cholesterol, ANCOVA LS mean (SE)",[3],9.13(2.22) mg/dL
same,"Change from baseline in Total cholesterol, Mean (SD)",[3],7.99(20.78) mg/dL
same,"Change from baseline in total cholesterol, Median",[3],11.00 mg/dL
same,"fasting Total cholesterol, Mean (SD)",[3],159.42(32.17) mg/dL
same,"fasting Total cholesterol, Median",[3],157.00 mg/dL
same,"Change from baseline in FPG, ANCOVA LS mean difference",[4],-3.38 mg/dL
same,"Change from baseline in body weight, ANCOVA LS mean difference",[4],-0.18 kg
same,"Change from baseline in fasting c-peptide, ANCOVA LS mean difference",[4],-0.06 ng/mL
same,"Odds ratio for achieving HbA1c target of <6.5%, logistic regression model",[4],0.40
same,"Odds ratio for achieving therapeutic glycemic response, logistic regression model",[4],1.30
same,"Change from baseline in FPG, ANCOVA LS mean (SE)",[5],-32.53 mg/dL
same,"Change from baseline in FPG, Mean (SD)",[5],-31.77 mg/dL
same,"Change from baseline in FPG, Median",[5],-31.00 mg/dL
same,"Change from baseline in body weight, ANCOVA LS mean (SE)",[5],−3.77(0.33) kg
same,"Change from baseline in body weight, Mean (SD)",[5],−3.78(3.77) kg
same,"Change from baseline in body weight, Median",[5],-3.60 kg
same,"Change from baseline in fasting c-peptide, ANCOVA LS mean (SE)",[5],−0.10(0.02) ng/mL
same,"Change from baseline in fasting c-peptide, Mean (SD)",[5],−0.10(0.16) ng/mL
same,"Change from baseline in fasting c-peptide, Median",[5],-0.07 ng/mL
same,"FPG, Mean (SD)",[5],113.58 mg/dL
same,"FPG, Median",[5],113.00 mg/dL
same,"Subjects achieving HbA1c target of <6.5%, (%)",[5],(13.68) %
same,"Subjects achieving therapeutic glycemic response, (%)",[5],(78.95) %
same,"body weight, Mean (SD)",[5],66.39(10.90) kg
same,"body weight, Median",[5],64.40 kg
same,"fasting c-peptide, Mean (SD)",[5],0.62(0.22) ng/mL
same,"fasting c-peptide, Median",[5],0.56 ng/mL
